# The supplement of paper PMC10307832
# Experiments:
# Assay in all cases: relative viability (nuclei count vs DMSO), 5 days (fraction); higher = more cells survive
# [1] = compound: O=S(=O)(c1ccccc1)N(CC(F)(F)F)c1ccc(C(O)(C(F)(F)F)C(F)(F)F)cc1 + Nc1nc2[nH]cc(CCc3ccc(C(=O)N[C@@H](CCC(=O)O)C(=O)O)cc3)c2c(=O)[nH]1 [Pemetrexed] (partner 0.2 µM)
# In short: (§1)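 Lung cancer cell lines were seeded in 1536-well plates and dosed by pin tool the next day, with either a single drug or a fixed anchor-drug dose combined with five library-drug doses (not always all listed) spaced in √10 steps. Five days later, one step fixed the cells and stained their nuclei (final 0.05% Triton X-100, 1% formaldehyde, 1 ug/ml Hoechst), and nuclei were counted on 4× images. Relative viability is the nuclei count in treated wells divided by the count in vehicle wells, and each value is the median of duplicate plates.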
# [2] = compound: O=S(=O)(c1ccccc1)N(CC(F)(F)F)c1ccc(C(O)(C(F)(F)F)C(F)(F)F)cc1 + O=C(CCCCCCC(=O)Nc1ccccc1)NO [Vorinostat] (partner 1 µM)
# In short: as §1
# [3] = compound: O=S(=O)(c1ccccc1)N(CC(F)(F)F)c1ccc(C(O)(C(F)(F)F)C(F)(F)F)cc1 + NC(=O)Nc1cc(-c2cccc(F)c2)sc1C(=O)N[C@H]1CCCNC1 [AZD7762] (partner 0.2 µM)
# In short: as §1
# RO-3306 + Alpelisib = compound: C1=CC2=C(C=CC(=C2)C=C3C(=O)NC(=NCC4=CC=CS4)S3)N=C1 [RO-3306] + Cc1nc(NC(=O)N2CCC[C@H]2C(N)=O)sc1-c1ccnc(C(C)(C)C(F)(F)F)c1 [Alpelisib] (partner 2 µM)
# In short: as §1
# [4] = compound: O=S(=O)(c1ccccc1)N(CC(F)(F)F)c1ccc(C(O)(C(F)(F)F)C(F)(F)F)cc1 + COc1cc2c(Oc3ccc(NC(=O)C4(C(=O)Nc5ccc(F)cc5)CC4)cc3F)ccnc2cc1OCCCN1CCOCC1 [Foretinib] (partner 0.25 µM)
# In short: as §1
Cell Line,relative viability ([1]; first compound 0.8 µM),relative viability ([1]; first compound 2.53 µM),relative viability ([1]; first compound 8 µM),relative viability ([2]; first compound 0.8 µM),relative viability ([2]; first compound 2.53 µM),relative viability ([2]; first compound 8 µM),relative viability ([3]; first compound 0.8 µM),relative viability ([3]; first compound 2.53 µM),relative viability ([3]; first compound 8 µM),relative viability (RO-3306 + Alpelisib; first compound 0.01 µM),relative viability (RO-3306 + Alpelisib; first compound 0.03162 µM),relative viability (RO-3306 + Alpelisib; first compound 0.1 µM),relative viability (RO-3306 + Alpelisib; first compound 0.3162 µM),relative viability (RO-3306 + Alpelisib; first compound 1 µM),relative viability ([4]; first compound 0.8 µM),relative viability ([4]; first compound 2.53 µM),relative viability ([4]; first compound 8 µM)
LK-2,0.283,0.266,0.298,0.27,0.247,0.346,0.488,0.682,0.412,1.27,0.897,1.02,1.31,1.03,1.21,1.16,0.835
LOU-NH91,0.424,0.434,0.35,0.985,0.913,1.04,0.801,0.8,0.796,0.7,0.705,0.764,0.708,0.671,0.999,0.884,0.937
LU99A,0.184,0.18,0.18,0.568,0.462,0.401,0.459,0.401,0.318,0.492,0.452,0.564,0.472,0.491,0.785,0.773,0.725
LXF-289,0.883,0.82,0.86,0.719,0.656,0.74,0.981,0.937,0.974,1.08,1.01,1.03,1.05,1.05,0.993,0.88,0.812
NCI-H23,0.706,0.654,0.74,0.75,0.622,0.725,0.22,0.293,0.246,0.729,0.685,0.573,0.69,0.517,1.02,1.16,1
NCI-H322M,0.603,0.62,0.595,0.883,0.842,0.869,0.542,0.643,0.583,0.8,0.7,0.707,0.888,0.827,1.08,0.915,0.953
NCI-H358,–,0.177,0.181,–,0.581,0.541,0.385,0.369,0.371,0.868,0.711,0.759,0.809,0.556,0.592,0.557,0.45
NCI-H441,0.25,0.262,0.285,0.464,0.85,0.781,1.34,1.2,0.996,1,0.556,0.563,0.657,0.66,0.916,0.927,0.952
NCI-H460,0.0543,0.0599,0.0652,0.847,0.673,0.618,0.571,0.555,0.625,0.571,–,0.503,0.656,0.426,1.14,0.889,0.778
NCI-H596,0.549,0.528,0.562,0.583,0.559,0.6,1.04,0.946,0.933,0.443,0.48,0.49,0.511,0.432,0.876,0.711,0.887
NCI-H647,0.0949,0.156,0.164,0.304,0.404,0.655,0.483,0.388,0.535,1.76,0.954,1.09,1.16,1.28,1.48,1.19,1.03
NCI-H650,0.841,0.992,0.851,0.368,0.36,0.359,0.814,1.22,0.996,0.872,0.981,1.03,1.1,1.05,1.18,1.05,1.07
NCI-H838,0.236,0.242,0.259,0.812,0.737,0.699,0.998,0.894,0.871,0.992,0.972,1.01,1.04,0.999,1.15,1.05,1.02
NCI-H1355,1.12,1.03,1.03,0.698,0.624,0.606,0.789,0.733,0.703,1,0.709,0.872,0.969,0.822,1.06,0.978,1.01
NCI-H1395,0.887,0.816,0.924,0.532,0.594,0.759,0.319,0.416,0.429,1.12,1.22,1.1,1.03,1.02,0.924,0.862,0.994
NCI-H1437,0.324,0.308,0.326,0.787,0.572,0.665,1.08,0.995,0.849,1.05,0.868,0.999,1,0.929,1.35,1.09,0.979
NCI-H1651,0.726,0.61,0.521,0.626,0.547,0.525,0.471,0.449,0.39,1.07,0.927,0.913,0.867,0.987,0.974,0.795,0.68
NCI-H1666,0.768,0.818,0.832,0.712,0.823,0.809,0.806,0.76,0.716,1.02,0.743,0.891,0.973,0.802,0.936,0.863,0.863

Cell Line,relative viability ([1]; first compound 0.8 µM),relative viability ([1]; first compound 2.53 µM),relative viability ([1]; first compound 8 µM),relative viability ([2]; first compound 0.8 µM),relative viability ([2]; first compound 2.53 µM),relative viability ([2]; first compound 8 µM),relative viability ([3]; first compound 0.8 µM),relative viability ([3]; first compound 2.53 µM),relative viability ([3]; first compound 8 µM),relative viability (RO-3306 + Alpelisib; first compound 0.01 µM),relative viability (RO-3306 + Alpelisib; first compound 0.03162 µM),relative viability (RO-3306 + Alpelisib; first compound 0.1 µM),relative viability (RO-3306 + Alpelisib; first compound 0.3162 µM),relative viability (RO-3306 + Alpelisib; first compound 1 µM),relative viability ([4]; first compound 0.8 µM),relative viability ([4]; first compound 2.53 µM),relative viability ([4]; first compound 8 µM)
NCI-H1734,0.438,0.431,0.422,1.01,0.898,0.498,0.617,0.67,0.343,0.687,0.595,0.697,0.726,0.719,1.07,0.868,0.822
NCI-H1755,0.417,0.422,0.436,0.907,0.679,0.592,0.468,0.421,0.485,1.02,0.772,0.958,0.904,0.859,0.891,0.79,0.951
NCI-H1793,0.792,0.587,0.806,0.574,0.539,0.521,0.409,0.426,0.246,0.686,0.577,0.739,0.59,0.565,0.484,0.321,0.566
NCI-H1915,0.518,0.464,0.51,0.51,0.568,0.499,0.712,0.731,0.682,1.11,0.988,1.08,1.11,1.05,1.1,1.03,1.1
NCI-H1944,0.634,0.589,0.576,0.686,0.561,0.521,0.546,0.501,0.581,0.789,0.739,0.816,0.934,0.829,0.938,0.826,0.832
NCI-H1975,0.358,0.293,0.3,0.752,0.752,0.65,0.632,0.519,0.669,0.882,0.507,0.615,0.675,0.67,1.11,1.01,1.13
NCI-H1993,0.616,0.533,0.614,0.859,0.575,0.836,0.69,0.657,0.774,–,0.657,0.712,0.589,0.666,0.681,0.726,0.679
NCI-H2085,0.751,0.8,0.869,0.785,0.748,0.711,0.941,0.799,0.913,1.07,0.926,0.922,0.968,0.952,0.886,0.725,0.885
NCI-H2087,0.459,0.593,0.633,0.89,0.509,0.946,1.4,1.31,1.31,1.12,1.2,1.08,0.91,1.08,1.15,0.909,0.971
NCI-H2126,0.82,0.743,0.672,0.89,0.684,0.723,1.19,1.1,0.999,0.717,0.698,0.752,0.786,0.8,1.35,1.19,1.1
NCI-H2170,0.256,0.274,0.28,0.863,0.695,0.761,0.994,0.817,0.961,0.772,0.687,0.765,0.825,0.77,1.02,0.88,0.837
NCI-H2347,0.47,0.445,0.395,0.695,0.52,0.548,0.942,0.724,0.742,1.13,0.759,1.01,1.05,0.951,1.2,0.996,0.683
NCI-H2405,1.17,1.05,1.01,1.02,0.755,0.913,0.907,0.665,0.705,0.801,0.707,0.784,0.874,0.695,1.14,1.05,0.979
NCI-H3122,0.209,0.19,0.201,1.01,0.948,1.19,1.02,0.935,0.801,0.635,0.738,0.832,0.762,0.788,0.891,0.792,1.05
PC-3 [JPC-3],–,1.07,0.949,–,0.637,0.895,–,0.763,0.75,1.1,1,1.02,0.98,0.98,1.1,0.983,0.951
PC-14,0.135,0.116,0.148,0.63,0.857,0.656,0.216,0.228,0.216,0.981,–,0.939,0.953,0.996,1.11,1.09,0.988
RERF-LC-KJ,0.477,0.453,0.461,0.735,0.588,0.616,0.973,0.889,0.825,1.01,0.708,0.706,0.836,0.768,0.816,0.746,0.751
